Values after ≈ are worked out from the molar mass of the structure shown. Read-outs that look alike come from different tables or passages of the source.
Columns and labels:
[1] = test system: clinically isolated strains of MRSA; experiment: Antibacterial MIC spectra against 50 clinically isolated strains of MRSA; format: cell-based, methicillin-resistant Staphylococcus aureus; conditions: Staphylococcus aureus; for MIC: read-out: Antibacterial MIC spectra; for MIC50: 50% of the 50 MRSA strains inhibited, read-out: MIC50; for MIC90: 90% of the 50 MRSA strains inhibited, read-out: MIC90
Description: (§1) Minimum growth inhibitory concentrations (MIC) of each of 2"-amino-2"-deoxyarbekacin (Compound Ia), 2"-amino-5,2"-dideoxyarbekacin (Compound Ib), 2"-amino-2"-deoxydibekacin (Compound IIa) and 2"-amino-5,2"-dideoxydibekacin (Compound IIb) against various bacteria (20 strains) and against clinically isolated strains of MRSA (50 strains) were determined by standard serial dilution method on Muller-Hinton's agar medium (as estimated after cultivating at 27° C. for 18 hours), and the test results obtained are shown in TABLE 3 and TABLE 4, respectively.
Note:- MIC50 or MIC90 represents the concentration of tested
active compound at which 50% or 90% of the total numbers of the bacterial
strains tested were inhibited from their growth. DKB denotes dibekacin,
(§2) Minimum growth inhibitory concentrations (MIC) of each of 2"-amino-5,2"-dideoxy-5-epi-fluoroarbekacin (Compound XVIa) and 2"-amino-5,2"-dideoxy-5-epi-aminoarbekacin (Compound XVIb) against various bacteria (18 strains) and against clinically isolated strains of MRSA (50 strains) were determined by standard serial dilution method on Muller-Hinton's agar medium (as estimated after cultivation at 27° C. for 18 hours), and the test results obtained are shown in TABLE 5 and TABLE 6, respectively.

[2] = test system: P. aeruginosa TI-13; experiment: MIC by standard serial dilution method on Muller-Hinton's agar; format: cell-based; conditions: Pseudomonas aeruginosa
Description: as §1, §2

[3] = test system: Proteus vulgaris OX19; experiment: as above; format: cell-based; conditions: 18 hours, read-out: MIC
Description: as §1, §2

[4] = test system: Shigella dysenteriae JSI1910; experiment: as above; format: cell-based; conditions: JSI1910, 18 h
Description: as §1, §2

[5] = test system: Providencia rettgeri GN311; experiment: as above; format: cell-based; conditions: 18 hours, read-out: MIC
Description: as §1, §2

[6] = test system: Staphylococcus aureus FDA209P; experiment: as above; format: cell-based; conditions: 18 hours
Description: as §1, §2

[7] = test system: Escherichia coli NIHJ; experiment: as above; format: cell-based; conditions: 18 hours
Description: as §1, §2

[8] = test system: S. epidermidis 109; experiment: as above; format: cell-based; conditions: Staphylococcus epidermidis, 109, 27° C., 18 hours, read-out: MIC
Description: as §1, §2

[9] = test system: S. aureus Smith; experiment: as above; format: cell-based; conditions: Staphylococcus aureus, 27° C., 18 hours
Description: as §1, §2

[10] = test system: Serratia marcescens; experiment: as above; format: cell-based
Description: as §1, §2

[11] = test system: E. coli K-12 LA290 R55; experiment: as above; format: cell-based; conditions: Escherichia coli, K12LA290R55, 18 h
Description: as §1, §2

[12] = test system: P. aeruginosa PST1; experiment: as above; format: cell-based; conditions: Pseudomonas aeruginosa, 18 hours
Description: as §1, §2

[13] = test system: Bacillus subtilis PCI219; experiment: as above; format: cell-based; conditions: 18 hours
Description: as §1, §2

[14] = test system: Klebsiella pneumoniae PCI602; experiment: as above; format: cell-based; conditions: 18 hours, read-out: MIC
Description: as §1, §2

[15] = test system: Pseudomonas aeruginosa A3; experiment: as above; format: cell-based; conditions: 18 hours, read-out: MIC
Description: as §1, §2

[16] = test system: P. aeruginosa H9; experiment: as above; format: cell-based; conditions: Pseudomonas aeruginosa
Description: as §1, §2

[17] = test system: Salmonella typhi T-63; experiment: as above; format: cell-based; conditions: Salmonella enterica, 18 hours
Description: as §1, §2

[18] = test system: E. coli K-12 ML1629; experiment: as above; format: cell-based; conditions: Escherichia coli
Description: as §1, §2

[19] = test system: E. coli JR66/W677; experiment: as above; format: cell-based; conditions: Escherichia coli, JR66/W677, 18 h
Description: as §1, §2

[20] = test system: E. coli K-12 ML1410; experiment: as above; format: cell-based; conditions: Escherichia coli, K12ML1410; Table 3; 27° C., 18 hours
Description: as §1

[21] = test system: B. cereus ATCC10702; experiment: as above; format: cell-based; conditions: Bacillus cereus, ATCC10702, 18 h
Description: as §1

[22] = Solubility in water; format: physicochemical
[23] = Acute toxicity, single intravenous administration to mice; format: in vivo; conditions: mouse, in vivo; single intravenous administration; mice (ICR-strain, 4 weeks old, female); observations for two weeks; read-out: LD50
Description: 50% Lethal dosages (LD50, observations for two weeks) of the new compounds of this invention as estimated upon single intravenous administration to mice (ICR-strain, 4 weeks old, female) are as follows:
50% Lethal dosages (LD50, observations for two weeks) of the new compounds of general formula (XVI) according to the seventh aspect of this invention as estimated upon single intravenous administration to mice (ICR-strain, 4 weeks old, female) are as follows: […]

[24] = TI13, Table 5, 27° C., 18 hours, read-out: MIC

SMILES | MIC ([1]; MRSA, 18 h) | MIC50 ([1]; 27° C., 18 hours) | MIC90 ([1]; 27° C., 18 hours) | MIC [4] | MIC ([10]; 18 h) | MIC [11] | MIC [19] | Solubility [22] | LD50 at 336 h [23] | MIC [2, 24] | MIC ([3]; OX19, Table 5, 27° C.) | MIC ([5]; GN311, Table 5, 27° C.) | MIC ([6]; Table 5, 27° C.) | MIC ([7]; Table 5, 27° C.) | MIC ([8]; Table 5) | MIC ([9]; Table 5) | MIC ([12]; Table 5, 27° C.) | MIC ([13]; Table 5, 27° C.) | MIC ([14]; PCI602, Table 5, 27° C.) | MIC ([15]; A3, Table 5, 27° C.) | other results
NCC[C@H](O)C(=O)N[C@@H]1C[C@H](N)[C@@H](O[C@H]2O[C@H](CN)CC[C@H]2N)[C@H](O)[C@H]1O[C@H]1O[C@H](CO)[C@@H](O)[C@H](N)[C@H]1N [Compound Ia, 2"-Amino-2"-deoxyarbekacin] | 0.2 to 3.13 µg/mL (≈ 0.363 to 5.67 µM) | 0.78 µg/mL (≈ 1.41 µM) | 1.56 µg/mL (≈ 2.83 µM) | 3.13 µg/mL (≈ 5.67 µM) | 3.13 µg/mL (≈ 5.67 µM) | 0.78 µg/mL (≈ 1.41 µM) | 3.13 µg/mL (≈ 5.67 µM) | easily soluble in water | > 100 mg/kg |  |  |  |  |  |  |  |  |  |  |  | MIC ([2]; TI13, 18 h): 3.13 µg/mL (≈ 5.67 µM); MIC ([3]; OX19, Table 3, 27° C.): 1.56 µg/mL (≈ 2.83 µM); MIC ([5]; GN311, Table 3, 27° C.): 1.56 µg/mL (≈ 2.83 µM); MIC ([6]; Table 3, 27° C.): 0.39 µg/mL (≈ 0.707 µM); MIC ([7]; Table 3, 27° C.): 0.78 µg/mL (≈ 1.41 µM); MIC ([8]; Table 3): 0.78 µg/mL (≈ 1.41 µM); MIC ([9]; Table 3): ≤ 0.2 µg/mL; MIC ([12]; Table 3, 27° C.): 12.5 µg/mL (≈ 22.7 µM); MIC ([13]; Table 3, 27° C.): 0.2 µg/mL (≈ 0.363 µM); MIC ([14]; PCI602, Table 3, 27° C.): 1.56 µg/mL (≈ 2.83 µM); MIC ([15]; A3, Table 3, 27° C.): 1.56 µg/mL (≈ 2.83 µM); MIC ([16]; H9, Table 3, 27° C., 18 hours, read-out: MIC): 6.25 µg/mL (≈ 11.3 µM); MIC ([17]; Table 3, 27° C.): 0.78 µg/mL (≈ 1.41 µM); MIC ([18]; K12ML1629, Table 3, 27° C., 18 hours, read-out: MIC): 3.13 µg/mL (≈ 5.67 µM); MIC [20]: 1.56 µg/mL (≈ 2.83 µM); MIC [21]: 3.13 µg/mL (≈ 5.67 µM)
NCC[C@H](O)C(=O)N[C@@H]1C[C@H](N)[C@@H](O[C@H]2O[C@H](CN)CC[C@H]2N)[C@@H](F)[C@H]1O[C@H]1O[C@H](CO)[C@@H](O)[C@H](N)[C@H]1N [Compound XVIa, 2"-Amino-5,2"-dideoxy-5-epi-fluoroarbekacin] | 0.39 to 3.13 µg/mL (≈ 0.704 to 5.65 µM) | 0.78 µg/mL (≈ 1.41 µM) | 1.56 µg/mL (≈ 2.82 µM) | 3.13 µg/mL (≈ 5.65 µM) |  | 1.56 µg/mL (≈ 2.82 µM) | 3.13 µg/mL (≈ 5.65 µM) | easily soluble in water | > 100 mg/kg | 1.56 µg/mL (≈ 2.82 µM) | 1.56 µg/mL (≈ 2.82 µM) | 1.56 µg/mL (≈ 2.82 µM) | 0.78 µg/mL (≈ 1.41 µM) | 0.78 µg/mL (≈ 1.41 µM) | 0.78 µg/mL (≈ 1.41 µM) | ≤ 0.2 µg/mL | 12.5 µg/mL (≈ 22.6 µM) | 0.39 µg/mL (≈ 0.704 µM) | 1.56 µg/mL (≈ 2.82 µM) | 0.78 µg/mL (≈ 1.41 µM) | MIC ([10]; Table 5, 27° C., 18 hours, read-out: MIC): 1.56 µg/mL (≈ 2.82 µM); MIC ([16]; H9, 18 h): 3.13 µg/mL (≈ 5.65 µM); MIC ([17]; Table 5, 27° C.): 0.78 µg/mL (≈ 1.41 µM); MIC ([18]; K12ML1629, 18 h): 3.13 µg/mL (≈ 5.65 µM)
NCC[C@H](O)C(=O)N[C@@H]1C[C@H](N)[C@@H](O[C@H]2O[C@H](CN)CC[C@H]2N)[C@@H](N)[C@H]1O[C@H]1O[C@H](CO)[C@@H](O)[C@H](N)[C@H]1N [Compound XVIb, 2"-amino-5,2"-dideoxy-5-epi-aminoarbekacin] |  | 0.78 µg/mL (≈ 1.42 µM) | 1.56 µg/mL (≈ 2.83 µM) | 3.13 µg/mL (≈ 5.68 µM) | 3.13 µg/mL (≈ 5.68 µM) | 1.56 µg/mL (≈ 2.83 µM) | 3.13 µg/mL (≈ 5.68 µM) | easily soluble in water | > 100 mg/kg | 1.56 µg/mL (≈ 2.83 µM) | 1.56 µg/mL (≈ 2.83 µM) | 1.56 µg/mL (≈ 2.83 µM) | ≤ 0.2 µg/mL | 0.78 µg/mL (≈ 1.42 µM) | 0.39 µg/mL (≈ 0.708 µM) | ≤ 0.2 µg/mL | 6.25 µg/mL (≈ 11.4 µM) | ≤ 0.2 µg/mL | 1.56 µg/mL (≈ 2.83 µM) | 0.39 µg/mL (≈ 0.708 µM) | MIC ([1]; range over 50 clinically isolated strains of MRSA, 27° C., 18 hours): 0.39 to 1.56 µg/mL (≈ 0.708 to 2.83 µM); MIC ([16]; H9, 18 h): 3.13 µg/mL (≈ 5.68 µM); MIC ([17]; Table 5, 27° C.): 0.78 µg/mL (≈ 1.42 µM); MIC ([18]; K12ML1629, 18 h): 1.56 µg/mL (≈ 2.83 µM)
NC[C@@H]1CC[C@@H](N)[C@@H](O[C@H]2[C@H](O)[C@@H](O[C@H]3O[C@H](CO)[C@@H](O)[C@H](N)[C@H]3O)[C@H](N)C[C@@H]2N)O1 [DKB, 3',4'-dideoxykanamycin B, reference compound] |  | 50 µg/mL (≈ 111 µM) | > 100 µg/mL |  |  |  |  |  |  |  |  |  |  |  |  |  |  |  |  |  | 
